2 compounds from patent publication US20160046592A1, “PHARMACEUTICAL COMPOSITION FOR THE TREATMENT OF DIABETES” (Ajinomoto Co., Inc., priority 2013, published 2016) can be followed below.

Counter-ions that a name gives are not always drawn.

The assay concerns the target T1, human GYS1 (glycogen synthase) (Homo sapiens, UniProt P13807).
T1 construct: made in house; host or cells: HEK293T
T1 sequence (P13807 1-737): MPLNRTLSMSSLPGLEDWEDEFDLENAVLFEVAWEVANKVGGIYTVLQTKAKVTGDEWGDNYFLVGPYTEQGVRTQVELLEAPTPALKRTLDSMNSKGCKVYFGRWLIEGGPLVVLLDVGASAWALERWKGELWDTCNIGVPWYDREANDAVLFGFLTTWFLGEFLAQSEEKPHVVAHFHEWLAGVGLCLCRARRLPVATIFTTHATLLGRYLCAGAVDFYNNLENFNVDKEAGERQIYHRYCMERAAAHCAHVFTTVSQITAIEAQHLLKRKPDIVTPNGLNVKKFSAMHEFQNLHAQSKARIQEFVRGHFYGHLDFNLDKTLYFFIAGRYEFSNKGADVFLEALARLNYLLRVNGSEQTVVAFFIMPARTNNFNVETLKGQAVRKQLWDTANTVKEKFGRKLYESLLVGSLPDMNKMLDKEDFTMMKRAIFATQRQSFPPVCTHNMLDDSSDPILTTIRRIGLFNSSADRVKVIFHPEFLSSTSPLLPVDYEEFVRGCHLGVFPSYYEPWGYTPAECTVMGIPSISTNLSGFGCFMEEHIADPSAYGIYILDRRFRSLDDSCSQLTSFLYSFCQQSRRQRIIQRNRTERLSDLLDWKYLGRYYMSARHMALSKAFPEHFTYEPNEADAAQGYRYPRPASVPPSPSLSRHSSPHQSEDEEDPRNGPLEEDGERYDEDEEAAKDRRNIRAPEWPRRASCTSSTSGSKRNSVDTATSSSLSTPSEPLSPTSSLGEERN
The assay is described as follows: Measurement of glycogen synthase activity. The settings on record: concentration causing 50% increase in relative activity; 100% = compound of Example 1 of WO/2011/058154 at 10 μM; 10 mM Glucose-6-phosphate; 37° C. for 25 minutes (Examples 1 to 61 and 67 to 82) or 20 minutes (Examples 62 to 66); absorbance at 340 nm. It counts as biochemical. In a few lines: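 Human GYS1 from transfected HEK293T cells (re-dissolved 16000×g pellet) was reacted at 37 °C for 25 or 20 min in glycylglycine pH 7.3 with glucose-6-phosphate, glycogen and UDP-glucose. PK/LDH-coupled NADH read-out at 340 nm; EC50 from activity relative to a reference activator at 10 μM final (100%).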

With `COC[C@@H]1CC[C@@H](C(=O)O)N1C(=O)c1cccc(COc2ccc(-c3cc(F)c(F)cc3SC)cc2)c1` [Example 62, (2S,5S)-1-[3-[[4-(4,5-Difluoro-2-methylsulfanyl-phenyl)phenoxy]methyl]benzoyl]-5-(methoxymethyl)pyrrolidine-2-carboxylic Acid], the EC50 was found to be 0.017 µM.
Compound `CSc1cc(F)c(F)cc1-c1ccc(OCc2cccc(C(=O)N3C[C@H](N(C)C)C[C@H]3C(=O)O)c2)cc1` [Example 63, (2S,4R)-1-[3-[[4-(4,5-Difluoro-2-methylsulfanyl-phenyl)phenoxy]methyl]benzoyl]-4-(dimethylamino)pyrrolidine-2-carboxylic Acid Trifluoroacetate] came in with an EC50 of 0.017 µM.
